Reference: patent publication US20040009899A1, “Treating dominant disorders” (priority 2002, published 2004)

Experiments:
mice = assay: Toxicity observation (behavior, weight, motor function) during intraventricular PNA treatment; assay type: in vivo; settings: 1.0 μL (25 μg/μL) into the ventricle every other day
Protocol: Animal treatment and tissue preparation: Aliquots of 1.0 μL (25 μg/μL) of a PNA oligomer specific for the expanded human HD allele (HDs) or a scrambled control PNA (HDscr) were administered into the ventricle every other day by injection via the cannula.

R6/2 mice [1] = assay: Body weight of treated R6/2 mice; assay type: in vivo, mouse
Protocol: (§1) Experiments were conducted to determine whether PNA-mediated inhibition of mutant huntingtin expression increased survival and/or reversed features of pathophysiology. R6/2 and non-transgenic mice were divided into two groups of three to five mice each, and treated with either HDs or ACSF for approximately ten weeks, beginning at five to six weeks of age. Treated animals received a dose of 0.15 mg/kg of the HDs PNA oligomer, administered by continuous infusion through an Alzet pump. All ACSF-treated transgenic mice died by three months of age.
(§2) In other experiments, R6/2 mice were divided into five groups (designated groups 1-5) containing eight to ten animals each. Groups 1-4 received either saline (group 1) or a specific amount of HDs (groups 2-4). Group 5 included untreated R6/2 mice. A sixth group included untreated non-transgenic B6CBA control mice. At 8 weeks of age, each mouse was weighed to establish a weight stability baseline. Baselines for clasping behavior, motility, and motor skill were established at 9 weeks of age using the methods described in Example 1.
At 9 weeks of age, the mice in each group received saline (group 1) or HDs at 2.0 mg/kg, 5.0 mg/kg, or 20.0 mg/kg (groups 2, 3, and 4, respectively) by i.p. injection every 48 hours. […] Weight stability, clasping behavior, motility, and motor skill were assessed weekly during the treatment period. […]

R6/2 mice [2] = assay: Brain weight / brain atrophy of treated R6/2 mice; assay type: in vivo, mouse
Protocol: as §1
(§3) At 9 weeks of age, the mice in each group received saline (group 1) or HDs at 2.0 mg/kg, 5.0 mg/kg, or 20.0 mg/kg (groups 2, 3, and 4, respectively) by i.p. injection every 48 hours. The injections continued through 13 weeks of age (i.e., treatment for […]). Weight stability, clasping behavior, motility, and motor skill were assessed weekly during the treatment period. At the time of death or after the treatment period, the brain of each mouse was removed using standard methods. The brains were divided into hemispheres, and one hemisphere of each brain was saved for protein and mRNA analysis. The remaining hemispheres were fixed directly in 10% formalin for 5-7 days. After fixing, the brain hemispheres were weighed individually and processed for sectioning and pathophysiology.

R6/2 mice [3] = assay: Survival of R6/2 transgenic mice treated with PNA; assay type: in vivo, mouse
Protocol: Cannulation and microsurgery—Method 2: Pump cannulas were prepared 48 hours before surgery. For adaptation to mice, Alzet pump cannulas were ground to a length of 2 mm. The cannulas then were sterilized by gas ozonation. Mice were anesthetized via i.p. injection with 100 mg/kg of a ketamine/xylazine solution containing 8 mg/mL ketamine and 1 mg/mL xylazine in 0.9% saline. Once anesthetized, each mouse was cannulated. Each anesthetized mouse was placed in a Stoelting Stereotaxic Frame with a mouse adapter (Stoelting Instruments). An incision was made using a scalpel, and the skin and tissue were pulled back with swabs to reveal the skull. The cannulation site was positioned for optimum access to the ventricle, at coordinates AP −0.2 mm, Horiz −1 mm from bregma. A cannula entry port and two bone screw ports were opened in the skull using a Dremel Flex Shaft Drill (Stoelting Instruments) with a 2.1 mm burr. The cannula was lowered into place and affixed using Loctite 454 (Loctite Corp., Avon, Ohio). An Alzet Mini-Osmotic Pump was inserted into a pouch beneath the skin and attached to the cannula with silastic tubing. The wound was closed using wound clips and the animal was allowed to recuperate.
Delivery of PNA oligomer solutions: All handling of tubing and cannulas was done under sterile conditions. PNA solutions at the correct concentrations were diluted in artificial cerebrospinal fluid (ACSF; 147 mM NaCl, 4.02 mM KCl, 1.2 mM CaCl2, pH 7.5) and then filtered for delivery. As a control, ACSF containing no PNA was delivered.
as §1, §2, §3

R6/2 mice [4] = assay: Open field test to assess motility; assay type: in vivo, mouse; settings: for level of motility (open field test): R6/2 mice
Protocol: Open field test to assess motility: Each mouse was confined for 10 minutes in a Plexiglas locomotion chamber equipped with a laser source and detector. As the mouse passed between the laser source and detector, the laser beam was “broken” and the event was automatically recorded. The number of beam breaks for B6CBA mice treated with the HDs PNA oligomer was compared to that of saline-treated or untreated control B6CBA mice. This number was directly related to general activity of the mice.
as §1, §2, §3

[5] = surviving R6/2 mice, 0.15 mg/kg continuous infusion by Alzet pump

“HDs: sense PNA oligomer, 14 residues, 5′-GGACTGCCGTGCCG-3′ (SEQ ID NO:3), specific for the expanded human HD allele (all peptide nucleic acid (PNA))” was tested, and the “toxicity as measured by weight or motor function relative to untreated animals” value (mice) was “no effects of toxicity”, the “weight stability over the treatment period” value (R6/2 mice [1]; R6/2 mice, 5.0 mg/kg i.p. every 48 hours, compared to 2.0 mg/kg or 20.0 mg/kg) was “more stable weight” and the “body weight over time” value (R6/2 mice [1]; [5]) was “continued to gain weight over time”. The “general brain atrophy typical of untreated R6/2 mice” value (R6/2 mice [2]; R6/2 mice, 0.15 mg/kg continuous infusion by Alzet pump) was “did not display the general brain atrophy”, the “recovery in brain hemisphere weight as compared to untreated non-transgenic mice” value (R6/2 mice [2]; R6/2 mice, 20.0 mg/kg i.p. every 48 hours) was “greatest degree of recovery” and the brain hemisphere weight (R6/2 mice [2]; R6/2 mice, all doses (2.0, 5.0, 20.0 mg/kg i.p. every 48 hours), dose dependent effect) was “greater than the weights of brain hemispheres from untreated R6/2 mice”. The brain weight (R6/2 mice [2]; two non-surviving treated R6/2 mice, 0.15 mg/kg continuous infusion by Alzet pump) was “increased brain weight”, the “survival of longest-surviving treated animal (one of three)” value (R6/2 mice [3]; 0.15 mg/kg continuous infusion by Alzet pump) was “still alive and healthy at six months of age” and the survival (R6/2 mice [3]; 0.15 mg/kg continuous infusion by Alzet pump, about ten weeks from five to six weeks of age, ACSF-treated all died by three months) was “improved survival”. For the same substance, the “mice alive at 13 weeks of age” value (R6/2 mice [3]; 2.0 mg/kg i.p. every 48 hours from 9 weeks of age) was “None”, the “mice alive at 13 weeks of age” value (R6/2 mice [3]; 5.0 mg/kg i.p. every 48 hours from 9 weeks of age) was 50% and the “mice alive at 13 weeks of age” value (R6/2 mice [3]; 20.0 mg/kg i.p. every 48 hours from 9 weeks of age) was 20%. For the same substance, the “level of motility (open field test)” value (R6/2 mice [4]; 2.0 mg/kg i.p. every 48 hours, compared to untreated R6/2 mice) was “no difference in motility”, the “level of motility (open field test)” value (R6/2 mice [4]; 5.0 mg/kg i.p. every 48 hours, lower than nontransgenic controls) was “increased as compared to untreated R6/2 mice” and the “level of motility (open field test)” value (R6/2 mice [4]; 20.0 mg/kg i.p. every 48 hours, lower than nontransgenic controls) was “increased as compared to untreated R6/2 mice”. The “motility as compared to non-transgenic animals” value (R6/2 mice [4]; [5]) was “decline in motility”.
